PubChem BioAssay AID248 (DTP/NCI, 2004)
Values joined by “and” are separate entries in the source; they are usually repeats but may differ in a detail not shown here. Identical values can stand only once. Inconclusive results and toxic doses are left out. Cut-off read from the data, not from the text of the source: active = T/C of 150% or more; inactive = T/C below 125%.

Tested on: L1210 leukemia ip in BDF1 mice, survival T/C
Assay: NCI In Vivo Anticancer Drug Screen. Data for tumor model L1210 Leukemia (intraperitoneal) in B6D2F1 (BDF1) mice
Conditions: endpoint: mean survival time, higher = longer survival
Outline: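 Tumor was transplanted into mice, which were then dosed with test compound or vehicle alone. Survival was recorded for each group, and the treated figure was expressed relative to the control figure.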

[1] = dose: 50.0 mg/kg/injection, schedule: Q01DX001 (ip), vehicle: carboxymethylcellulose (CMC)
[2] = dose: 100.0 mg/kg/injection, schedule: Q01DX001 (ip), vehicle: carboxymethylcellulose (CMC)
[3] = dose: 200.0 mg/kg/injection, schedule: Q01DX001 (ip), vehicle: carboxymethylcellulose (CMC)
[4] = dose: 400.0 mg/kg/injection, schedule: Q01DX001 (ip), vehicle: carboxymethylcellulose (CMC)
[5] = dose: 100.0 mg/kg/injection, schedule: Q04DX003 (ip), vehicle: saline with Tween-80
[6] = dose: 100.0 mg/kg/injection, schedule: Q01DX001 (ip), vehicle: other
[7] = dose: 200.0 mg/kg/injection, schedule: Q01DX001 (ip), vehicle: other
[8] = dose: 400.0 mg/kg/injection, schedule: Q01DX001 (ip), vehicle: other
[9] = dose: 100.0 mg/kg/injection, schedule: Q04DX002 (ip), vehicle: Klucel (hydroxypropylcellulose) (HPC)
[10] = dose: 200.0 mg/kg/injection, schedule: Q04DX002 (ip), vehicle: Klucel (hydroxypropylcellulose) (HPC)
[11] = dose: 400.0 mg/kg/injection, schedule: Q04DX002 (ip), vehicle: Klucel (hydroxypropylcellulose) (HPC)
[12] = dose: 25.0 mg/kg/injection, schedule: Q01DX009 (ip), vehicle: saline with Tween-80
[13] = dose: 50.0 mg/kg/injection, schedule: Q01DX009 (ip), vehicle: saline with Tween-80
[14] = dose: 200.0 mg/kg/injection, schedule: Q04DX003 (ip), vehicle: saline with Tween-80
[15] = dose: 400.0 mg/kg/injection, schedule: Q04DX003 (ip), vehicle: saline with Tween-80
[16] = dose: 100.0 mg/kg/injection, schedule: Q04DX003 (ip), vehicle: Klucel (hydroxypropylcellulose) (HPC)
[17] = dose: 200.0 mg/kg/injection, schedule: Q04DX003 (ip), vehicle: Klucel (hydroxypropylcellulose) (HPC)
[18] = dose: 400.0 mg/kg/injection, schedule: Q04DX003 (ip), vehicle: Klucel (hydroxypropylcellulose) (HPC)
[19] = dose: 100.0 mg/kg/injection, schedule: Q04DX003 (ip), vehicle: saline
[20] = dose: 200.0 mg/kg/injection, schedule: Q04DX003 (ip), vehicle: saline

Measured: T/C

CN1CCC(CNC(=O)c2ccccc2)c2ccccc21 (stereo not given)
inactive: [1] 100 % of control | [2] 96 % of control | [3] 92 % of control | [4] 102 % of control

CCOCCOCCCNCc1cnc2nc(N)nc(N)c2n1
inactive: dose: 10.0 mg/kg/injection, schedule: Q01DX009 (ip), vehicle: saline 97 % of control | dose: 20.0 mg/kg/injection, schedule: Q01DX009 (ip), vehicle: saline 103 % of control | dose: 40.0 mg/kg/injection, schedule: Q01DX009 (ip), vehicle: saline 103 % of control

S=c1[nH]c2ccc(Cl)cc2[nH]1
inactive: dose: 25.0 mg/kg/injection, schedule: Q04DX003 (ip), vehicle: saline with Tween-80 100 % of control | dose: 50.0 mg/kg/injection, schedule: Q04DX003 (ip), vehicle: saline with Tween-80 98 % of control | [5] 100 % of control

CC1CCCN(P(c2ccccc2)N2CCCC(C)C2)C1 (stereo not given)
inactive: dose: 100.0 mg/kg/injection, schedule: Q04DX002 (sc), vehicle: olive oil, sesame oil, peanut oil 97 % of control | dose: 200.0 mg/kg/injection, schedule: Q04DX002 (sc), vehicle: olive oil, sesame oil, peanut oil 100 % of control | dose: 400.0 mg/kg/injection, schedule: Q04DX002 (sc), vehicle: olive oil, sesame oil, peanut oil 100 % of control

CCC1(C)CCC2(C)C(CCC3C2CCCC3(C)C(=O)O)C1 (stereo not given)
inactive: dose: 12.5 mg/kg/injection, schedule: Q04DX002 (ip), vehicle: saline with Tween-80 96 % of control | dose: 25.0 mg/kg/injection, schedule: Q04DX002 (ip), vehicle: saline with Tween-80 96 % of control | dose: 50.0 mg/kg/injection, schedule: Q04DX002 (ip), vehicle: saline with Tween-80 89 % of control

CCOC=Nc1cc(-n2cnc3c(Cl)ncnc32)ccc1C
inactive: [2] 87 % of control | [3] 98 % of control | [4] 96 % of control

Oc1ccccc1C=Nc1ccccc1S.[Cu+2]
inactive: [6] 97 % of control | [7] 94 % of control | [8] 96 % of control

CCCC(C)C(O)C(C)C (stereo not given)
inactive: [1] 93 % of control | [2] 95 % of control | [3] 95 % of control | [4] 93 % of control

NC(=O)COc1ccc(Cl)c2ccccc12
inactive: dose: 100.0 mg/kg/injection, schedule: Q01DX001 (ip), vehicle: Klucel (hydroxypropylcellulose) (HPC) 96 % of control | [9] 86 % of control | dose: 200.0 mg/kg/injection, schedule: Q01DX001 (ip), vehicle: Klucel (hydroxypropylcellulose) (HPC) 102 % of control | [10] 99 % of control | dose: 400.0 mg/kg/injection, schedule: Q01DX001 (ip), vehicle: Klucel (hydroxypropylcellulose) (HPC) 86 % of control | [11] 99 % of control

OC12Cc3ccccc3C1=NN(c1ccccc1)C2c1ccccc1 (stereo not given)
inactive: [12] 101 % of control | [13] 104 % of control | dose: 100.0 mg/kg/injection, schedule: Q01DX009 (ip), vehicle: saline with Tween-80 90 % of control | [5] 93 % of control | [14] 97 % of control | [15] 91 % of control

CCC(=O)NC1CC(OC2CC(O)(C(C)=O)Cc3c(O)c4c(c(O)c32)C(=O)c2c(OC)cccc2C4=O)OC(C)C1O (stereo not given)
inactive: dose: 2.0 mg/kg/injection, schedule: Q04DX003 (ip), vehicle: water 104 % of control | dose: 3.12 mg/kg/injection, schedule: Q01DX009 (ip), vehicle: saline with Tween-80 96 % of control | dose: 4.0 mg/kg/injection, schedule: Q04DX003 (ip), vehicle: water 105 % of control | dose: 6.25 mg/kg/injection, schedule: Q01DX009 (ip), vehicle: saline with Tween-80 105 % of control | dose: 8.0 mg/kg/injection, schedule: Q04DX003 (ip), vehicle: water 103 % of control | dose: 12.5 mg/kg/injection, schedule: Q01DX009 (ip), vehicle: saline with Tween-80 105 % of control | dose: 16.0 mg/kg/injection, schedule: Q04DX003 (ip), vehicle: water 101 % of control and 102 % of control | dose: 18.75 mg/kg/injection, schedule: Q04DX003 (ip), vehicle: saline with Tween-80 105 % of control | [12] 111 % of control | dose: 32.0 mg/kg/injection, schedule: Q04DX003 (ip), vehicle: water 116 % of control | dose: 37.5 mg/kg/injection, schedule: Q04DX003 (ip), vehicle: saline with Tween-80 105 % of control | [13] 113 % of control | dose: 64.0 mg/kg/injection, schedule: Q04DX003 (ip), vehicle: water 112 % of control | dose: 75.0 mg/kg/injection, schedule: Q04DX003 (ip), vehicle: saline with Tween-80 105 % of control | dose: 150.0 mg/kg/injection, schedule: Q04DX003 (ip), vehicle: saline with Tween-80 122 % of control | dose: 125.0 micrograms/kg/injection, schedule: Q04DX003 (ip), vehicle: water 100 % of control | dose: 250.0 micrograms/kg/injection, schedule: Q04DX003 (ip), vehicle: water 102 % of control | dose: 500.0 micrograms/kg/injection, schedule: Q04DX003 (ip), vehicle: water 97 % of control | dose: 1000.0 micrograms/kg/injection, schedule: Q04DX003 (ip), vehicle: water 103 % of control | dose: 2000.0 micrograms/kg/injection, schedule: Q04DX003 (ip), vehicle: water 96 % of control

Cc1nc(N)nc2c1CCC(Nc1ccccc1)S2 (stereo not given)
inactive: [16] 106 % of control | [17] 103 % of control | [18] 92 % of control

CC(C)(C)C1CCC(OC=O)CC1 (stereo not given)
inactive: [16] 92 % of control | [17] 93 % of control

Cc1c(O)c2ccc3ccccc3c2oc1=O
inactive: [19] 97 % of control | [20] 91 % of control

CN1c2cccc[c]2[Sn]([CH3])([CH3])[c]2ccccc21
inactive: [6] 92 % of control | [7] 92 % of control | [8] 108 % of control

Nc1ccc(C(=O)N/N=C/C=C/c2ccccc2)cc1
inactive: [9] 105 % of control | [10] 96 % of control | [11] 99 % of control

CSc1nc(N)nc2c1ncn2CCCl
inactive: [19] 103 % of control | [20] 96 % of control | dose: 400.0 mg/kg/injection, schedule: Q04DX003 (ip), vehicle: saline 97 % of control

Cc1ccc(NC(=O)c2cccc(C(=O)Nc3ccc(C)c(Cl)c3)c2)cc1Cl
inactive: dose: 100.0 mg/kg/injection, schedule: Q01DX009 (ip), vehicle: Klucel (hydroxypropylcellulose) (HPC) 91 % of control | [16] 95 % of control | dose: 200.0 mg/kg/injection, schedule: Q01DX009 (ip), vehicle: Klucel (hydroxypropylcellulose) (HPC) 97 % of control | [17] 96 % of control | dose: 400.0 mg/kg/injection, schedule: Q01DX009 (ip), vehicle: Klucel (hydroxypropylcellulose) (HPC) 92 % of control | [18] 106 % of control

O=[N+]([O-])c1ccc(-c2nc3c(o2)CCC3)cc1
inactive: [5] 98 % of control | [14] 105 % of control | [15] 96 % of control

N#Cc1cc(Cl)cn1O
inactive: dose: 100.0 mg/kg/injection, schedule: Q04DX002 (ip), vehicle: other 91 % of control | dose: 200.0 mg/kg/injection, schedule: Q04DX002 (ip), vehicle: other 99 % of control
